Measurements from EP0738727B1, “1,4-BENZOXAZINE-2-ACETIC ACID COMPOUND, PROCESS FOR PRODUCING THE SAME, AND USE THEREOF” (Senju Pharmaceutical Co., Ltd., priority 1994, dated 1995).
Marks after values point to notes of the source that are not given here.

Key:
[1] = tested on: sorbitol accumulation in tissues; experiment: Inhibitory action on sorbitol accumulation in tissues of rats with experimental (streptozotocin) diabetes; assay type: in vivo, Sprague-Dawley rats; settings: measured 3 hours after final administration, control taken as 100%; for Sorbitol accumulation (%) nerve: sciatic nerve
Method: Sprague-Dawley rats (male, 6 weeks old, 5-6 per group) were fasted for 18 hours and injected with streptozotocin (SIGMA, 60 mg/kg) via the tail vein under etherization to prepare rats with diabetes.
The various compounds were orally administered at 4, 8 and 24 hours after the injection of streptozotocin, at 10 mg/kg or 30 mg/kg as a 0.5% carboxymethylcellulose suspension. During the administrations, the rats were raised under free access to feed and water, and the sorbitol content of the tissues (erythrocytes, sciatic nerve, lens) was determined 3 hours after the final administration, according to the enzyme method of H.Y. Bergmeyer et al. [Methods of Enzymatic Analysis, vol. 3, 1323-1330 (1974)] with the use of SDH (sorbitol dehydrogenase) and NAD (β-nicotinamide adenine dinucleotide). The results (sorbitol accumulation) are expressed in percent (%) relative to the value of a control group administered with 0.5% carboxymethylcellulose solution (solvent) instead of the drug, which was taken as 100%.

[2] = molecular target: T1, aldose reductase (Sus scrofa, UniProt P80276); experiment: Aldose reductase inhibitory action (method of S. Hayman et al., absorbance change at 340 nm); assay type: biochemical; settings: swine lens enzyme, 3 mM dl-glyceraldehyde, 0.1 mM NADPH, pH 6.2, 25°C
T1 construct: swine lenses freeze-stored at -80°C were homogenized with distilled water and centrifuged at 10,000 G for 15 minutes; from tissue; host or cells: swine lens
Method: An aldose reductase enzyme standard product was prepared from swine lens according to the method of S. Hayman et al. [Journal of Biological Chemistry, 240, 877-882 (1965)]. That is, swine lenses freeze-stored at -80°C were homogenized with distilled water and centrifuged at 10,000 G for 15 minutes. The supernatant was prepared into a 40% ammonium sulfate solution and subjected to centrifugation at 10,000 G for 10 minutes. The supernatant obtained was dialyzed overnight against a 0.05 M sodium chloride solution to give a dialyzed solution, which was used as an enzyme standard product.
The activity of aldose reductase was determined by the above-mentioned method of S. Hayman et al. That is, the above-mentioned enzyme solution (25 µl) and a drug solution (25 µl) dissolved in 1% DMSO at various concentrations were added to a 40 mM phosphate buffer (200 µl, pH 6.2) containing, at final concentrations, 0.4 M lithium sulfate, 0.1 mM NADPH (reduced type nicotinamide adenine dinucleotide phosphate) and 3 mM dl-glyceraldehyde as a substrate. The mixture was allowed to react at 25°C for 2 minutes and the changes in absorbance at 340 nm were determined with COBAS FARA II (manufactured by Roche). The changes in absorbance when 1% DMSO was added instead of the drug solution was taken as 100%, based on which 50% inhibition concentration (IC50) was calculated and shown in Table 1. […] The test drug number indicates the example number to be mentioned later. IC50 (M) means the concentration of the drug at which the aldose reductase activity is inhibited by 50% Table 1

[3] = tested on: ICR mice; experiment: Acute toxicity after a single oral dose in mice; assay type: in vivo; settings: 300 mg/kg orally, male ICR mice, observation for 14 days
Method: Normal ICR mice (male, 7 weeks old, 5 per group) were fasted for 18 hours and the compound (300 mg/kg) of Example 33 was orally administered as a 0.5% carboxymethylcellulose suspension. To the control group, a 0.5% carboxymethylcellulose solution alone was orally administered, and observation was continued for 14 days thereafter, during which period the mice were allowed to take feed and water freely.

[4] = 10 mg/kg orally at 4, 8 and 24 hours after streptozotocin
[5] = 30 mg/kg orally at 4, 8 and 24 hours after streptozotocin

Row | SMILES | Sorbitol accumulation (%) erythrocytes [1, 4] | Sorbitol accumulation (%) lens [1, 4] | Sorbitol accumulation (%) nerve [1, 4] | IC50 [2] [nM] | further results
1 | O=C(O)CC1Oc2cc(F)ccc2N(Cc2nc3c(F)c(F)ccc3s2)C1=O (stereo not drawn) [Example 45, 2-[7-fluoro-4-(4,5-difluorobenzothiazol-2-yl)methyl-3,4-dihydro-3-oxo-2H-1,4-benzoxazin-2-yl]acetic acid] | 32.4** % | 71.8* % | 56.8** % | – | –
2 | Cc1ccc2c(c1)N(Cc1nc3c(F)c(F)ccc3s1)C(=O)C(CC(=O)O)O2 (stereo not drawn) [Example 36, 2-[4-(4,5-difluorobenzothiazol-2-yl)methyl-6-methyl-3,4-dihydro-3-oxo-2H-1,4-benzoxazin-2-yl]acetic acid] | 17.3** % | 60.7* % | 23.5** % | 9.2 | –
3 | CC(C)c1cccc2c1OC(C(C)C)C(=S)N2CC(=O)O (stereo not drawn) [Compound A, 3,4-dihydro-2,8-diisopropyl-3-thioxo-2H-1,4-benzoxazine-4-acetic acid, reference compound] | – | – | – | – | Sorbitol accumulation (%) erythrocytes [1, 5]: 53.7* %; Sorbitol accumulation (%) lens [1, 5]: 87.3%; Sorbitol accumulation (%) nerve [1, 5]: 54.9** %
4 | O=C(O)CC1Oc2cc(F)ccc2N(Cc2nc3c(F)c(F)cc(F)c3s2)C1=O (stereo not drawn) [Example 44, 2-[7-fluoro-4-(4,5,7-trifluorobenzothiazol-2-yl)methyl-3,4-dihydro-3-oxo-2H-1,4-benzoxazin-2-yl]acetic acid] | 25.9** % | 52.0** % | 4.7 ** % | – | –
5 | O=C(O)CC1Oc2ccc(Cl)cc2N(Cc2nc3c(F)c(F)cc(F)c3s2)C1=O (stereo not drawn) [Example 38, 2-[6-chloro-4-(4,5,7-trifluorobenzothiazol-2-yl)methyl-3,4-dihydro-3-oxo-2H-1,4-benzoxazin-2-yl]acetic acid] | 24.6** % | 44.1** % | 0.0** % | – | –
6 | O=C(O)CC1Oc2ccc(F)cc2N(Cc2nc3c(F)c(F)ccc3s2)C1=O (stereo not drawn) [Example 26, 2-[6-fluoro-4-(4,5-difluorobenzothiazol-2-yl)methyl-3,4-dihydro-3-oxo-2H-1,4-benzoxazin-2-yl]acetic acid] | – | – | – | 9.6 | –
7 | O=C(O)CC1Oc2ccccc2N(Cc2nc3c(F)c(F)cc(F)c3s2)C1=O (stereo not drawn) [Example 30, 2-[4-(4,5,7-trifluorobenzothiazol-2-yl)methyl-3,4-dihydro-3-oxo-2H-1,4-benzoxazin-2-yl]acetic acid] | 22.2** % | 45.2** % | 1.0** % | – | –
8 | O=C(O)CC1Oc2ccccc2N(Cc2nc3cc(F)cc(F)c3s2)C1=O (stereo not drawn) [Example 32, 2-[4-(5,7-difluorobenzothiazol-2-yl)methyl-3,4-dihydro-3-oxo-2H-1,4-benzoxazin-2-yl]acetic acid] | 27.2** % | 39.1** % | 11.4** % | – | –
9 | O=C(O)CC1Oc2ccccc2N(Cc2nc3ccc(F)c(F)c3s2)C1=O (stereo not drawn) [Example 33, 2-[4-(6,7-difluorobenzothiazol-2-yl)methyl-3,4-dihydro-3-oxo-2H-1,4-benzoxazin-2-yl]acetic acid] | – | – | – | – | death [3]: no case of death; weights ([3]; compared with control group): showed transition in the same manner as in the control group
10 | O=C(O)CC1Oc2ccc(F)cc2N(Cc2nc3c(Cl)c(Cl)ccc3s2)C1=O (stereo not drawn) [Example 28, 2-[4-(4,5-dichlorobenzothiazol-2-yl)methyl-6-fluoro-3,4-dihydro-3-oxo-2H-1,4-benzoxazin-2-yl]acetic acid] | 16.3** % | 89.3% | 56.0** % | – | –
11 | Cc1ccc2c(c1)OC(CC(=O)O)C(=O)N2Cc1nc2cc(F)cc(F)c2s1 (stereo not drawn) [Example 43, 2-[4-(5,7-difluorobenzothiazol-2-yl)methyl-7-methyl-3,4-dihydro-3-oxo-2H-1,4-benzoxazin-2-yl]acetic acid] | 34.9** % | 100.9% | 60.6** % | – | –
12 | Cc1ccc2c(c1)N(Cc1nc3c(F)c(F)cc(F)c3s1)C(=O)C(CC(=O)O)O2 (stereo not drawn) [Example 35, 2-[4-(4,5,7-trifluorobenzothiazol-2-yl)methyl-6-methyl-3,4-dihydro-3-oxo-2H-1,4-benzoxazin-2-yl] acetic acid] | – | – | – | 9.1 | –
13 | O=C(O)CC1Oc2ccccc2N(Cc2nc3cc(Cl)ccc3s2)C1=O (stereo not drawn) [Example 25, 2-[4-(5-chlorobenzothiazol-2-yl)methyl-3,4-dihydro-3-oxo-2H-1,4-benzoxazin-2-yl]acetic acid] | – | – | – | 8.6 | –
14 | O=C(O)CC1Oc2ccc(F)cc2N(Cc2nc3cc(F)cc(F)c3s2)C1=O (stereo not drawn) [Example 27, 2-[6-fluoro-4-(5,7-difluorobenzothiazol-2-yl)methyl-3,4-dihydro-3-oxo-2H-1,4-benzoxazin-2-yl]acetic acid] | – | – | – | 9.9 | –
15 | O=C(O)CC1Oc2ccccc2N(Cc2nc3c(Cl)c(Cl)ccc3s2)C1=O (stereo not drawn) [Example 34, 2-[4-(4,5-dichlorobenzothiazol-2-yl)methyl-3,4-dihydro-3-oxo-2H-1,4-benzoxazin-2-yl]acetic acid] | – | – | – | 9.9 | –
16 | O=C(O)CC1Oc2ccc(Cl)cc2N(Cc2nc3c(F)c(F)ccc3s2)C1=O (stereo not drawn) [Example 39, 2-[6-chloro-4-(4,5-difluorobenzothiazol-2-yl)methyl-3,4-dihydro-3-oxo-2H-1,4-benzoxazin-2-yl]acetic acid] | – | – | – | 9.9 | –
